Measurements taken from PubChem BioAssay (NCI).
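48-hour exposure; five concentrations; linearly interpolated endpoints. Definition used: TGI = concentration required for complete inhibition of growth.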

Assays:
Assay in all cases: NCI anticancer screen, dose series, 48 h
HT29 colon = system: HT29 colon
K-562 leukemia = system: K-562 leukemia
IGROV1 ovarian = system: IGROV1 ovarian
SK-MEL-28 melanoma = system: SK-MEL-28 melanoma
HCT-15 colon = system: HCT-15 colon
MDA-MB-435 = system: MDA-MB-435
MDA-MB-231 breast = system: MDA-MB-231 breast
DU-145 prostate = system: DU-145 prostate
UACC-257 melanoma = system: UACC-257 melanoma
SK-MEL-2 melanoma = system: SK-MEL-2 melanoma
HS 578T breast = system: HS 578T breast
A549 NSCLC = system: A549 NSCLC
786-0 renal = system: 786-0 renal
SF-268 CNS = system: SF-268 CNS
M19-MEL melanoma = system: M19-MEL melanoma
DMS 273 small cell lung = system: DMS 273 small cell lung
DLD-1 colon = system: DLD-1 colon
XF 498 CNS = system: XF 498 CNS
HOP-18 NSCLC = system: HOP-18 NSCLC
KM20L2 colon = system: KM20L2 colon

| SMILES | TGI (HT29 colon) [µM] | TGI (K-562 leukemia) [µM] | TGI (IGROV1 ovarian) [µM] | TGI (SK-MEL-28 melanoma) [µM] | TGI (HCT-15 colon) [µM] | TGI (MDA-MB-435) [µM] | TGI (MDA-MB-231 breast) [µM] | TGI (DU-145 prostate) [µM] | TGI (UACC-257 melanoma) [µM] | TGI (SK-MEL-2 melanoma) [µM] | TGI (HS 578T breast) [µM] | TGI (A549 NSCLC) [µM] | TGI (786-0 renal) [µM] | TGI (SF-268 CNS) [µM] | TGI (M19-MEL melanoma) [µM] | TGI (DMS 273 small cell lung) [µM] | TGI (DLD-1 colon) [µM] | TGI (XF 498 CNS) [µM] | TGI (HOP-18 NSCLC) [µM] | TGI (KM20L2 colon) [µM] |
| --- | --- | --- | --- | --- | --- | --- | --- | --- | --- | --- | --- | --- | --- | --- | --- | --- | --- | --- | --- | --- |
| NC(CCCCCCCCCCP(=O)(O)O)C(=O)O (stereo unspecified) | > 100 | > 100 | > 100 | > 100 | > 100 | > 100 | > 100 | > 100 | > 100 | > 100 | > 100 | > 100 | – | – | – | – | – | – | – | – |
| NC(N)=Nc1ccc(-c2ccc(N=C(N)N)cc2)cc1 | > 100 | > 100 | > 89.6 | > 100 | > 100 | > 100 | > 100 | > 76.1 | > 100 | 99.7 | 67.3 | > 100 | > 100 | > 100 | – | – | – | – | – | – |
| O=C1N(Cl)C(=O)C(c2ccc(Cl)cc2)(c2ccc(Cl)cc2)N1Cl | > 100 | > 100 | > 100 | > 100 | > 100 | – | – | – | – | > 100 | – | > 100 | > 100 | > 100 | > 100 | > 100 | > 100 | > 100 | > 100 | > 100 |
| N/C(=N\N=C/c1ccc(O)c(O)c1O)NO | 35.1 | 48 | > 100 | > 100 | 34.5 | – | – | – | > 100 | > 69.8 | – | > 100 | – | > 100 | 48.1 | 18.5 | 51.2 | > 100 | > 100 | 82.5 |
